Measured values taken from PMC6892255, “Identification of a potent small-molecule inhibitor of bacterial DNA repair that potentiates quinolone antibiotic activity in methicillin-resistant Staphylococcus aureus^” (Bioorganic & Medicinal Chemistry, 2019).

Legend:
E. coli K-12 BW25113 = test: MIC / growth inhibition assay (end-point OD600), single agent; format: cell-based, Escherichia coli; conditions: Escherichia coli, BW25113, end-point OD600 after 18 h, read-out: EC50 E. coli (K12 BW25113) Compound only
Source text: (§1) Minimum inhibitory concentration (MIC) assays were used to evaluate the antimicrobial activity of compounds against Gram-negative (E. coli) and Gram-positive (S. aureus) bacteria. […] Gram-positive bacteria are more susceptible to small-molecule penetration, and compounds were therefore assessed for growth inhibition against the S. aureus SH1000 strain.
(§2) 2.1. Biological and biochemical methods
(§3) Bacterial strains and culture conditions
(§4) Strains utilized in the present study are detailed in Table S1. All strains used were cultivated on Mueller Hinton Agar (MHA) and grown to stationary-phase in Mueller Hinton Broth (MHB) at 37 °C for 16 h, with shaking at 180 r.p.m.
(§5) Minimum inhibitory concentration (MIC) assays
(§6) MIC assays were performed in 96 well plates and MICs were determined in accordance with the broth microdilution protocol.4 Strains grown to stationary-phase in MHB were adjusted to 5 x 10^5 colony-forming units (CFU)/mL in fresh MHB (100 µL/well) supplemented with DMSO to ensure a constant concentration of 0.5% (v/v) DMSO across all experiments. Where […]
(§7) or H2O2 (200 μM). Test compounds were prepared as two-fold serial dilutions. Cells were […]
(§8) as the lowest concentration with no visible bacterial growth, and the optical density at 600 nm (OD600) was recorded. OD600 measurements were background corrected against no-inocula control and normalized to DMSO control for dose-response analysis. The EC50 value mean and SEM were calculated from individual EC50 values from three biological replicates. […]

[1] = system: methicillin-resistant S. aureus (MRSA, USA300 JE2); test: Ciprofloxacin (CFX) potentiation in MRSA growth inhibition assay; format: cell-based, Staphylococcus aureus
Description: as §2, §3, §4, §5, §6, §7, §8

MRSA (USA300 JE2) = test: Growth inhibition in the presence of mitomycin-C; format: cell-based, Staphylococcus aureus
Description: The analogue panel was further tested for potentiation of alternative DNA-damaging agents Mitomycin-C (MMC) and hydrogen peroxide (Table S2), which function via alkylation and oxidization DNA bases, respectively.
as §2, §3, §4, §5, §6, §7, §8

JE2 = test: Synergy experiments with CFX (growth rate method, Chou-Talalay, CompuSyn); format: cell-based, Staphylococcus aureus
Description: A more precise method to determine EC50 values for individual compounds and combinations was used to increase accuracy for CI calculations. […]
Synergy experiments were performed as described for MIC assays. Two-fold serial dilutions […]
carried out at 37 °C, with shaking at 220 r.p.m. OD600 was recorded every 30 min over a 17 h period. Measurements were background corrected against the no-inocula control before a growth curve of OD600 against time was constructed. The gradient of the exponential phase was obtained by linear regression. Gradients were normalized against the smallest and largest value within the respective data set prior to analysis with the CompuSyn software (http://www.combosyn.com/) to calculate combination index (CI) and dose-reduction index (DRI) values for each drug combination. […]

S. aureus SH1000 = test: MIC / growth inhibition assay (end-point OD600), single agent; format: cell-based; conditions: Staphylococcus aureus, SH1000, 18 h, end-point OD600 after 18 h, read-out: EC50 S. aureus (SH1000) Compound only
Source text: as §1, §2, §3, §4, §5, §6, §7, §8

E. coli topoisomerase IV = target: T1, E. coli topoisomerase IV (Escherichia coli, UniProt P0AFI2+P20083); test: Topoisomerase IV supercoiling relaxation assay (pQE80L); format: biochemical; conditions: at 12.5 µM (compounds)
T1 construct: purchased Inspiralis
Description: 2.1. Biological and biochemical methods […]
E. coli DNA gyrase supercoiling assay (Inspiralis) was performed according to the manufacturer’s instructions, ensuring a constant concentration of 1% (v/v) DMSO. Samples were separated on a 1% (w/v) agarose gel prepared with Tris/Borate/EDTA (TBE) buffer (1 M Tris-borate, 20 mM EDTA, pH 8.0). Electrophoresis was performed at 100 V until the bromophenol blue dye had run >6 cm to ensure resolution of relaxed and supercoiled DNA.
The gel was stained with SYBR Safe DNA gel stain (Invitrogen, 1:10,000 dilution in TBE) for 30 min, and visualized on a Syngene Gel Doc system. Band intensity was quantified using ImageJ software and the fraction of supercoiled plasmid was determined as the ratio of the density of the supercoiled band to the total density. Values were background corrected against the no-gyrase control and normalized to DMSO control for dose-response analysis.
E. coli topoisomerase IV supercoiling relaxation assay (Inspiralis) was performed according to the manufacturer’s instructions, ensuring a constant concentration of 1% (v/v) DMSO.
Supercoiled pQE80L was prepared via plasmid purification and used as the substrate for the reaction. Reactions were analyzed as described for DNA gyrase assays. […]

T1 sequence (P0AFI2 whole entry): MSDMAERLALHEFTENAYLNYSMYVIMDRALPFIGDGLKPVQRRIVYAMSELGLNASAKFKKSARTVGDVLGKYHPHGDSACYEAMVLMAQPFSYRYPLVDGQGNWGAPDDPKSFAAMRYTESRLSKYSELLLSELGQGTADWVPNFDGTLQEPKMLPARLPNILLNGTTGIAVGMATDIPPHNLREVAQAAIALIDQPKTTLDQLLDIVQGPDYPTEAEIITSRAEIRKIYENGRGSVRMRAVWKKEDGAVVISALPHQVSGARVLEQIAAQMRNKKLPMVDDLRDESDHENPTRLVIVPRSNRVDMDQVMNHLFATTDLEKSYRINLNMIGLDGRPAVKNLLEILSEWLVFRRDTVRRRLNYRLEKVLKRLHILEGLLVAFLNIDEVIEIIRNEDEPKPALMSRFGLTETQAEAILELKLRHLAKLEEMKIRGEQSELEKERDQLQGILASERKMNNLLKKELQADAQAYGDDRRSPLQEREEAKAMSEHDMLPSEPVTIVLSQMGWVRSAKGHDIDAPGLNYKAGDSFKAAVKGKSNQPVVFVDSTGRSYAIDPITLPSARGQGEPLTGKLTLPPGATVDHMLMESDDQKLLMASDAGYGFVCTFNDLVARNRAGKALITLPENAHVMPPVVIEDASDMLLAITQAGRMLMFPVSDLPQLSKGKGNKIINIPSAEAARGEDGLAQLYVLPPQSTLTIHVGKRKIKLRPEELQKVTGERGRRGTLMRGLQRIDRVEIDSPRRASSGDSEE
T1 sequence (P20083 whole entry): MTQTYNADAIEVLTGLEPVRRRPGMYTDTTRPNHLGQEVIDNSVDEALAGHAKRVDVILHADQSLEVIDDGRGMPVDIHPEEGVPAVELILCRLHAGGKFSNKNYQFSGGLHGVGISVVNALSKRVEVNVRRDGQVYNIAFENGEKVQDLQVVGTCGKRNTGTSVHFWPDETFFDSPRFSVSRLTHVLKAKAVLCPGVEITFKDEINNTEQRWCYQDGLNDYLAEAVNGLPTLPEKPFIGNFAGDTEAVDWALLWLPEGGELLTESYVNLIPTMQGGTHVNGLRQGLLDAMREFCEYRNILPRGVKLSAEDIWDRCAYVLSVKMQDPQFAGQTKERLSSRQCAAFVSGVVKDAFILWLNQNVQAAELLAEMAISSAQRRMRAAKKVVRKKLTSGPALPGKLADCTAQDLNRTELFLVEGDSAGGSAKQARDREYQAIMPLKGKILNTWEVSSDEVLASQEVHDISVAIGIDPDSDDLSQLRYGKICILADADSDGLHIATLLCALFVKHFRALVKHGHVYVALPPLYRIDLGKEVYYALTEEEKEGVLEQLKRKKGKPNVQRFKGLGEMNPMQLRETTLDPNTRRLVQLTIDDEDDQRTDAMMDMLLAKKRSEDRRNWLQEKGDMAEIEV

SMILES: O=C(O)c1cn(C2CC2)c2cc(N3CCN(C(=S)Nc4ccc(C(F)(F)F)cc4)CC3)c(F)cc2c1=O [Compound 10]
- EC50 (E. coli K-12 BW25113): 500 ± 50 nM
- fold increase in potency against JE2 in the presence of CFX compared to single agent ([1]; CFX 9.4 µM): ~650 fold
- fold increase in potency compared to 1 for potentiation against JE2 by CFX ([1]; JE2 + CFX): ~160 fold
- fold increase in potency of para- over meta-substituted analogue, potentiation by CFX ([1]; JE2 + CFX, 4 vs 1, 10 vs 7, 14 vs 13): ~25 fold
- EC50 ([1]; read-out: EC50 S. aureus (USA300 JE2) Compound + CFX (9.4 μM), in presence of half-MIC CFX (9.4 μM)): 5.9 ± 0.6 nM
- Potentiation of Mitomycin-C (MMC) (MRSA (USA300 JE2); JE2): did not potentiate
- EC50 (MRSA (USA300 JE2); read-out: EC50 Compound + MMC (0.40 µM), MRSA USA300 JE2, mitomycin-C 0.40 µM): 1400 ± 300 nM
- Dose-reduction index (DRI) (JE2; JE2, combination with CFX, CompuSyn): 2.8
- Combination index (CI) with CFX (JE2; JE2, constant-ratio combination with CFX, CompuSyn): 0.70
- EC50 (JE2; Staphylococcus aureus, JE2, rate of exponential growth phase over 17 h at 37 °C): 2800 ± 200 nM
- EC50 (S. aureus SH1000): 210 ± 30 nM
- Inhibition of topoisomerase IV (E. coli topoisomerase IV): not inhibited and not
